Reference: US12049439B2 (OrsoBio, Inc., priority 2018, dated 2024)

System: PC-3 cells
Assay: PC-3 Oxygen Rate Consumption (OCR) Assay
Type: cell-based
Settings: Homo sapiens, 0.05 h, medium with 2% FBS, OCR at 3-min post-injection normalized to % increase over DMSO-treated cells, concentration for half-maximal OCR increase, read-out: EC50-PC3-OCR-FBS-3min
In short: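 PC-3 cells seeded a day before, equilibrated 1 h in XF medium with 10 mM glucose, 1 mM pyruvate, 2% FBS, non-CO2 at 37 °C. Compound injected after basal OCR reads; OCR at 3 min post-injection normalized as % increase over DMSO, EC50 = half-maximal increase; six replicates.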

CS(=O)(=O)Nc1cc(SC(F)(F)F)ccc1C(=O)NC12CCC(C#N)(CC1)CC2 [Example 202, N-(4-cyanobicyclo[2.2.2]octan-1-yl)-2-(methylsulfonamido)-4-((trifluoromethyl)thio)benzamide]
EC50: 9.32 µM

CS(=O)(=O)Nc1cc(OC(F)(F)F)ccc1C(=O)NC12CCC(C#N)(CC1)CC2 [Example 203, N-(4-cyanobicyclo[2.2.2]octan-1-yl)-2-(methylsulfonamido)-4-(trifluoromethoxy)benzamide]
EC50: 23 µM

N#CC12CCC(NC(=O)c3cc(C(F)(F)F)ccc3NS(=O)(=O)C3CCOCC3)(CC1)CC2 [Example 204, N-(4-cyanobicyclo[2.2.2]octan-1-yl)-2-((tetrahydro-2H-pyran)-4-sulfonamido)-5-(trifluoromethyl)benzamide]
EC50: 15.7 µM

CN(C)S(=O)(=O)Nc1ccc(S(F)(F)(F)(F)F)cc1C(=O)NC12CCC(C#N)(CC1)CC2 [Example 205, N-(4-cyanobicyclo[2.2.2]octan-1-yl)-2-((N,N-dimethylsulfamoyl)amino)-5-(pentafluoro-λ^6-sulfanyl)benzamide]
EC50: 1.21 µM

N#CC12CCC(NC(=O)c3cc(S(F)(F)(F)(F)F)ccc3NS(=O)(=O)N3CCOCC3)(CC1)CC2 [Example 206, N-(4-cyanobicyclo[2.2.2]octan-1-yl)-2-(morpholine-4-sulfonamido)-5-(pentafluoro-λ^6-sulfanyl)benzamide]
EC50: 2.71 µM

O=C(NC12CCC(C(F)(F)F)(CC1)CC2)c1cc(Cl)ccc1NS(=O)(=O)C1CCS(=O)(=O)CC1 [Example 207, 5-chloro-2-((1,1-dioxidotetrahydro-2H-thiopyran)-4-sulfonamido)-N-(4-(trifluoromethyl)bicyclo[2.2.2]octan-1-yl)benzamide]
EC50: 8.12 µM

CS(=O)(=O)Nc1ccc(Cl)cc1C(=O)NC12CCC(C(F)(F)F)(CC1)CC2 [Example 208, 5-chloro-2-(methylsulfonamido)-N-(4-(trifluoromethyl)bicyclo[2.2.2]octan-1-yl)benzamide]
EC50: 10.6 µM

N#CC1(S(=O)(=O)Nc2ccc(Cl)cc2C(=O)NC23CCC(C(F)(F)F)(CC2)CC3)CC1 [Example 209, 5-chloro-2-((1-cyanocyclopropane)-1-sulfonamido)-N-(4-(trifluoromethyl)bicyclo[2.2.2]octan-1-yl)benzamide]
EC50: 0.648 µM

O=C(NC12CCC(C(F)(F)F)(CC1)CC2)c1cc(OC(F)(F)F)ccc1NS(=O)(=O)C1CCS(=O)(=O)CC1 [Example 210, 2-((1,1-dioxidotetrahydro-2H-thiopyran)-4-sulfonamido)-5-(trifluoromethoxy)-N-(4-(trifluoromethyl)bicyclo[2.2.2]octan-1-yl)benzamide]
EC50: 4.35 µM

N#CC12CCC(NC(=O)c3cc(Cl)ccc3NS(=O)(=O)C3(C#N)CC3)(CC1)CC2 [Example 211, 5-chloro-N-(4-cyanobicyclo[2.2.2]octan-1-yl)-2-((1-cyanocyclopropane)-1-sulfonamido)benzamide]
EC50: 15.4 µM

CS(=O)(=O)Nc1ccc(C(F)(F)F)cc1C(=O)NC12CC(C1)C2 [Example 212, N-(bicyclo[1.1.1]pentan-1-yl)-2-(methylsulfonamido)-5-(trifluoromethyl)benzamide]
EC50: 8.62 µM

CS(=O)(=O)Nc1ccc(Cl)cc1C(=O)NC12CCC(C#N)(CC1)CC2 [Example 213, 5-chloro-N-(4-cyanobicyclo[2.2.2]octan-1-yl)-2-(methylsulfonamido)benzamide]
EC50: 81.9 µM

CS(=O)(=O)Nc1cc(Cl)ccc1C(=O)NC12CCC(C#N)(CC1)CC2 [Example 214, 4-chloro-N-(4-cyanobicyclo[2.2.2]octan-1-yl)-2-(methylsulfonamido)benzamide]
EC50: 26.3 µM

CS(=O)(=O)Nc1cc(F)c(F)cc1C(=O)NC12CCC(C#N)(CC1)CC2 [Example 215, N-(4-cyanobicyclo[2.2.2]octan-1-yl)-4,5-difluoro-2-(methylsulfonamido)benzamide]
EC50: 21.4 µM

CCS(=O)(=O)Nc1cc(F)c(F)cc1C(=O)NC12CCC(C#N)(CC1)CC2 [Example 216, N-(4-cyanobicyclo[2.2.2]octan-1-yl)-4,5-difluoro-2-(ethylsulfonamido)benzamide]
EC50: 16.9 µM

CS(=O)(=O)N1C2CCC1CC(NC(=O)c1ccc(F)cc1NS(=O)(=O)CCC(F)(F)F)C2 (stereo not shown) [Example 217, 4-fluoro-N-(8-(methylsulfonyl)-8-azabicyclo[3.2.1]octan-3-yl)-2-((3,3,3-trifluoropropyl)sulfonamido)benzamide]
EC50: 112 µM

CS(=O)(=O)N1C2CCC1CC(NC(=O)c1ccc(Cl)cc1NS(=O)(=O)CCC(F)(F)F)C2 (stereo not shown) [Example 218, 4-chloro-N-(8-(methylsulfonyl)-8-azabicyclo[3.2.1]octan-3-yl)-2-((3,3,3-trifluoropropyl)sulfonamido)benzamide]
EC50: 53.4 µM

CS(=O)(=O)Nc1c(C(=O)NC23CCC(C#N)(CC2)CC3)ccc2ccccc12 [Example 219, N-(4-cyanobicyclo[2.2.2]octan-1-yl)-1-(methylsulfonamido)-2-naphthamide]
EC50: ≥ 200 µM

N#CC12CCC(NC(=O)c3cc(F)ccc3NS(=O)(=O)CCC(F)(F)F)(CC1)CC2 [Example 220, N-(4-cyanobicyclo[2.2.2]octan-1-yl)-5-fluoro-2-((3,3,3-trifluoropropyl)sulfonamido)benzamide]
EC50: 5.09 µM

N#CC12CCC(NC(=O)c3cc(Cl)ccc3NS(=O)(=O)CCC(F)(F)F)(CC1)CC2 [Example 221, 5-chloro-N-(4-cyanobicyclo[2.2.2]octan-1-yl)-2-((3,3,3-trifluoropropyl)sulfonamido)benzamide]
EC50: 1.09 µM

N#CC12CCC(NC(=O)c3cc(F)ccc3NS(=O)(=O)CCC(F)(F)F)(CC1)C2 [Example 222, N-(4-cyanobicyclo[2.2.1]heptan-1-yl)-5-fluoro-2-((3,3,3-trifluoropropyl)sulfonamido)benzamide]
EC50: 5.7 µM

N#CC12CCC(NC(=O)c3ccc(F)cc3NS(=O)(=O)CCC(F)(F)F)(CC1)C2 [Example 223, N-(4-cyanobicyclo[2.2.1]heptan-1-yl)-4-fluoro-2-((3,3,3-trifluoropropyl)sulfonamido)benzamide]
EC50: 4.43 µM

N#CC12CCC(NC(=O)c3cc(C(F)(F)F)ccc3NS(=O)(=O)N3CC(OC(F)F)C3)(CC1)CC2 [Example 224, N-(4-cyanobicyclo[2.2.2]octan-1-yl)-2-((3-(difluoromethoxy)azetidine)-1-sulfonamido)-5-(trifluoromethyl)benzamide]
EC50: 2.42 µM

COC1(C)CN(S(=O)(=O)Nc2ccc(C(F)(F)F)cc2C(=O)NC23CCC(C#N)(CC2)CC3)C1 [Example 225, N-(4-cyanobicyclo[2.2.2]octan-1-yl)-2-((3-methoxy-3-methylazetidine)-1-sulfonamido)-5-(trifluoromethyl)benzamide]
EC50: 6.74 µM

N#CC12CCC(NC(=O)c3ccc(SC(F)(F)F)cc3NS(=O)(=O)C3(C#N)CC3)(CC1)CC2 [Example 226, N-(4-cyanobicyclo[2.2.2]octan-1-yl)-2-((1-cyanocyclopropane)-1-sulfonamido)-4-((trifluoromethyl)thio)benzamide]
EC50: 7.1 µM

N#CC12CCC(NC(=O)c3cc(C(F)(F)F)ccc3NS(=O)(=O)N3CC(OC(F)(F)F)C3)(CC1)CC2 [Example 227, N-(4-cyanobicyclo[2.2.2]octan-1-yl)-2-((3-(trifluoromethoxy)azetidine)-1-sulfonamido)-5-(trifluoromethyl)benzamide]
EC50: 1.45 µM

N#CCCS(=O)(=O)Nc1ccc(Cl)cc1C(=O)NC12CC(C(F)(F)F)(C1)C2 [Example 228, 5-chloro-2-((2-cyanoethyl)sulfonamido)-N-(3-(trifluoromethyl)bicyclo[1.1.1]pentan-1-yl)benzamide]
EC50: 3.37 µM

CS(=O)(=O)Nc1ccc(C#N)cc1C(=O)NC12CCC(C(F)(F)F)(CC1)CC2 [Example 229, 5-cyano-2-(methylsulfonamido)-N-(4-(trifluoromethyl)bicyclo[2.2.2]octan-1-yl)benzamide]
EC50: 4.42 µM

O=C(NC12CCC(C(F)(F)F)(CC1)CC2)c1ccc(C(F)(F)F)cc1NS(=O)(=O)C1CCS(=O)(=O)CC1 [Example 230, 2-((1,1-dioxidotetrahydro-2H-thiopyran)-4-sulfonamido)-4-(trifluoromethyl)-N-(4-(trifluoromethyl)bicyclo[2.2.2]octan-1-yl)benzamide]
EC50: 5.59 µM

O=C(NC12CCC(C(F)(F)F)(CC1)CC2)c1ccc(F)cc1NS(=O)(=O)N1CCS(=O)(=O)CC1 [Example 231, 2-((1,1-dioxidothiomorpholine)-4-sulfonamido)-4-fluoro-N-(4-(trifluoromethyl)bicyclo[2.2.2]octan-1-yl)benzamide]
EC50: 4.69 µM

N#CC1CC2(C1)CN(S(=O)(=O)Nc1cc(F)c(F)cc1C(=O)NC13CC(C(F)(F)F)(C1)C3)C2 [Example 232, 2-((6-cyano-2-azaspiro[3.3]heptane)-2-sulfonamido)-4,5-difluoro-N-(3-(trifluoromethyl)bicyclo[1.1.1]pentan-1-yl)benzamide]
EC50: 5.58 µM

N#CC1CCN(S(=O)(=O)Nc2ccc(C(F)(F)F)cc2C(=O)NC23CCC(C#N)(CC2)CC3)CC1 [Example 233, N-(4-cyanobicyclo[2.2.2]octan-1-yl)-2-((4-cyanopiperidine)-1-sulfonamido)-5-(trifluoromethyl)benzamide]
EC50: 4.79 µM

N#CC1CN(S(=O)(=O)Nc2ccc(C(F)(F)F)cc2C(=O)NC23CC(C(F)(F)F)(C2)C3)C1 [Example 234, 2-((3-cyanoazetidine)-1-sulfonamido)-5-(trifluoromethyl)-N-(3-(trifluoromethyl)bicyclo[1.1.1]pentan-1-yl)benzamide]
EC50: 3.86 µM

CS(=O)(=O)Nc1ccc(SC(F)(F)F)cc1C(=O)NC12CCC(C#N)(CC1)CC2 [Example 235, N-(4-cyanobicyclo[2.2.2]octan-1-yl)-2-(methylsulfonamido)-5-((trifluoromethyl)thio)benzamide]
EC50: 4.53 µM
